From patent US10154961B2, “Pomegranate oil for preventing and treating neurodegenerative diseases” (Hadasit Medical Research Services and Development Ltd., priority 2012, dated 2018)

Tested on: fibroblast isolated from TgMHu2ME199K mice
Format: cell-based

CCCC\C=C/C=C/C=C\CCCCCCCC(=O)O [punicic acid]
effect on copper toxicity, percentage of cell survival: significantly inhibited the toxic effect of cooper
